Reference: US5324857A, “Inhibition of the formation of nitrosamines” (Solvay Interox, priority 1992, dated 1994)

Assays:
[1] = Nitrosamine formation during oxidation of dodecyldimethylamine with hydrogen peroxide under metal stress conditions, DTPA chelant, with free radical scavenger; conditions: for Nitrosamine content, total: MDNA + NDMA; for Nitrosamine content, total / Nitrosamine content, MDNA / Nitrosamine content, NDMA: 2.0 mmoles scavenger, DTPA 0.043 mmoles, 60° C. then 75° C., total 4 hours; for Nitrosamine content, MDNA: methyldodecylnitrosamine; for Nitrosamine content, NDMA: nitrosodimethylamine; for reduction in nitrosamine formation: mixture already containing carboxylate chelating agent (DTPA), in words
Description: (§1) This Comparison and these Examples were each carried out using the following general method:-Dodecyldimethylamine (0.2012 moles, 42.94 g), and sufficient pure water to 150 g, ie approximately 106.9 g, were charged into a passivated 250 mL reaction flask, at ambient temperature together with 0.16 g of the stock metal solution described below to introduce 0.011 mmoles of transition metal impurities and thereby create stress conditions. A chelating agent, DTPA, viz diethylenetriaminepentacarboxylic acid, 0.043 mmoles, was then introduced into the mixture to provide a mole ratio to the metal of about 4:1.
(§2) The stock metal solution was obtained by dissolving CuSO4.5H2O, 0.393 g, MnSO4.H2O, 0.1475 g, K2CrO4, 0.0935 g, Fe(NH4)2(SO4)2.6H2O, 3.5106 g, AlK(SO4)2.12H2O, 8.791 g in 500 mL water (deionized) containing 20 mL of 10%w/w sulfuric acid solution. It contained a total of 2350 ppm metals concentration. Thus, the concentration of metals in the reaction mixture was about 2.3 ppm.
(§3) The reaction mixture was then heated to a temperature of 60° C. and stirred. An aqueous hydrogen peroxide solution, 50% w/w solution, stabilized by sodium pyrophosphate at 70 ppm calculated as PO4, 15.03 g, was then delivered into the reaction mixture at a constant slow rate during the subsequent 45 minutes. In the Examples, but not in the Comparison, the hydrogen peroxide solution also contained 2.0 mmoles of a free radical scavenger, as specified below. When all the hydrogen peroxide had been introduced, the reaction temperature was increased to 75° C. and the reaction permitted to continue for a total of 4 hours. The mixture was then cooled and analyzed for yield of amine oxide and for the production of by-product volatile nitrosamines, specifically methyldodecylnitrosamine (MDNA) and nitrosodimethylamine (NDMA).
The free radical scavengers were respectively 2,6-di-tert-butyl-4-methylphenol (BHT) in Ex2, butylated hydroxyanisole, a mixture of 2-tert-butylmethoxy anisole and 3-tert-butylmethoxy anisole (BHA) in Ex3, ethyl gallate (EtG) in Ex4 and propyl gallate (PrG) in Ex5.

[2] = Nitrosamine formation during oxidation of dodecyldimethylamine with hydrogen peroxide under metal stress conditions, CDTMPA chelant, with free radical scavenger; conditions: for Nitrosamine content, total: MDNA + NDMA; for Nitrosamine content, total / Nitrosamine content, MDNA / Nitrosamine content, NDMA: 2.0 mmoles scavenger, CDTMPA, 60° C. then 75° C., total 4 hours; for Nitrosamine content, MDNA: methyldodecylnitrosamine; for Nitrosamine content, NDMA: nitrosodimethylamine; for reduction in nitrosamine formation: mixture already containing phosphonic acid chelating agent (CDTMPA), in words
Description: as §1, with “A chelating agent, DTPA, viz diethylenetriaminepentacarboxylic acid, 0.043 mmoles, was then introduced into the mixture to provide a mole ratio to the metal of about 4:1.” left out
as §2, §3

SMILES	Nitrosamine content, total [1]	Nitrosamine content, MDNA [1]	Nitrosamine content, NDMA [1]	Nitrosamine content, total [2]	Nitrosamine content, MDNA [2]	Nitrosamine content, NDMA [2]	reduction in nitrosamine formation [1]	reduction in nitrosamine formation [2]
COc1ccc(O)c(C(C)(C)C)c1 [BHA, butylated hydroxyanisole]	779 ppb	652 ppb	127 ppb	276 ppb	151 ppb	125 ppb		
Cc1cc(C(C)(C)C)c(O)c(C(C)(C)C)c1 [BHT, 2,6-di-tert-butyl-4-methylphenol]	1794 ppb	1420 ppb	374 ppb	335 ppb	212 ppb	123 ppb		
CCC(C)O (stereo not shown) [BuL, 2-butanol]				1261 ppb	582 ppb	679 ppb		
CCOC(=O)c1cc(O)c(O)c(O)c1 [EtG, ethyl gallate]	407 ppb	334 ppb	73 ppb	87 ppb	57 ppb	30 ppb	marked reduction in nitrosamine formation	marked reduction in nitrosamine formation
CCCOC(=O)c1cc(O)c(O)c(O)c1 [PrG, propyl gallate]	308 ppb	230 ppb	78 ppb	80 ppb	59 ppb	21 ppb	marked reduction in nitrosamine formation	marked reduction in nitrosamine formation
O=C(O)CCSCCC(=O)O [TPA, thiodipropionic acid]				541 ppb	444 ppb	97 ppb		
